Molecules are shown by their SMILES.

The target in test [1] is NUAK family SNF1-like kinase 1 (Homo sapiens) (UniProt O60285). As to the kind of experiment: Inhibition of recombinant human ARK5 (2 to end residues) assessed as residual activity at 1 uM using KKKVSRSGLYRSPSMPENLNRPR as substrate incubated for 40 mins in presence of [gamma-33ATP] by scintillation counting based radiometry assay relative to control.
The target of test [2] is Beta-adrenergic receptor kinase 1 (Homo sapiens) (UniProt P25098). Kind of test: Inhibition of recombinant full length human GRK2 assessed as residual activity at 1 uM using casein as substrate at 40 mins in presence of [gamma-33ATP] by scintillation counting based radiometry assay relative to control.
Beta-adrenergic receptor kinase 1 (Homo sapiens), sequence (P25098 whole entry): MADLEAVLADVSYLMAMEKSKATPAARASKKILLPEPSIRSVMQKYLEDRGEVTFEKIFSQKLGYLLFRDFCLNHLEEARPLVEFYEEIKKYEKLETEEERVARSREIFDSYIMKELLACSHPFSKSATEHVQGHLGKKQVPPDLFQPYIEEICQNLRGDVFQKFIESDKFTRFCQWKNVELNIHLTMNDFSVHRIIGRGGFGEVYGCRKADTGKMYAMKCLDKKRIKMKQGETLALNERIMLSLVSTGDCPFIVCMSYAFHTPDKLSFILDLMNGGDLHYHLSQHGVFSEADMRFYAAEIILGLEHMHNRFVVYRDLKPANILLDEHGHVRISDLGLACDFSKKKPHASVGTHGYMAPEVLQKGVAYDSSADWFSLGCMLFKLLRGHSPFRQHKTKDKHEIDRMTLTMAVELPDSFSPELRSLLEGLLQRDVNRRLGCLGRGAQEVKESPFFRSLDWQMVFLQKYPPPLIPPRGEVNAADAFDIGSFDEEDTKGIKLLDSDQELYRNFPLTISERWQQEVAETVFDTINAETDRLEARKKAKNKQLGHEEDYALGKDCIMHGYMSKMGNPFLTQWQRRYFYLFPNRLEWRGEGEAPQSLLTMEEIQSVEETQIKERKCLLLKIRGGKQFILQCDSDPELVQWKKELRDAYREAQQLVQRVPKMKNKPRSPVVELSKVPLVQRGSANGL
Test [3] concerns the target Platelet-derived growth factor receptor beta (Homo sapiens) (UniProt P09619). As to the kind of experiment: Inhibition of human PDGFRbeta (557 to end residues) assessed as residual activity at 1 uM using poly(Glu, Tyr) 4:1 as substrate measured after 40 mins in presence of [gamma33P]ATP by scintillation counting method relative to control.
Test [4] concerns the target Fibroblast growth factor receptor 2 (Homo sapiens) (UniProt P21802). As to the kind of experiment: Inhibition of recombinant human FGFR2 (456 to 770 residues) assessed as residual activity at 1 uM using poly(Glu, Tyr) 4:1 as substrate at 40 mins in presence of [gamma-33ATP] by scintillation counting based radiometry assay relative to control.
For test [5], the target named is Serine/threonine-protein kinase NLK (Homo sapiens) (UniProt Q9UBE8). Kind of test: Inhibition of recombinant human NLK (121 to end residues) assessed as residual activity at 1 uM using myelin basic protein as substrate measured after 40 mins in presence of [gamma33P]ATP by scintillation counting method relative to control.
Serine/threonine-protein kinase NLK (Homo sapiens), sequence (Q9UBE8 whole entry): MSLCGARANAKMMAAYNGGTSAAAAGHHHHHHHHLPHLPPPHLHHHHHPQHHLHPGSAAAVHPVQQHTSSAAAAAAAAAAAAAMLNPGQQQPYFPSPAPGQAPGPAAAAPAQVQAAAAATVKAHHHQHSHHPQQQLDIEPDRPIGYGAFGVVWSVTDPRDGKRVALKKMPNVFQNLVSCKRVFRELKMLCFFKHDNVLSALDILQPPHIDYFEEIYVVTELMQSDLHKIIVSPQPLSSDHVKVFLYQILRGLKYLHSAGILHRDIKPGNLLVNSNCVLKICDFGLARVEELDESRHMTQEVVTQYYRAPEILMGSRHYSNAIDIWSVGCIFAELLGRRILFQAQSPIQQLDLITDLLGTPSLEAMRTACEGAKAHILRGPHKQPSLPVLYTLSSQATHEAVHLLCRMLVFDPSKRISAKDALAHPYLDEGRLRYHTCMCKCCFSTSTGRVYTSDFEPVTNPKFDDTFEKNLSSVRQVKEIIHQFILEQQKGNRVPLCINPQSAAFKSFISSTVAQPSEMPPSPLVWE
For test [6], the target named is Serine/threonine-protein kinase 16 (Homo sapiens) (UniProt O75716). Kind of test: Inhibition of human STK16 assessed as residual activity at 1 uM by radiometric method relative to control.
The target of test [7] is Tribbles homolog 2 (Homo sapiens) (UniProt Q92519). As to the kind of experiment: Inhibition of recombinant full-length human TRB2 at 1 uM assessed as residual activity at 1 uM using RRRFRPASPLRGPPK as substrate measured after 120 mins in presence of [gamma33P]ATP by scintillation counting method relative to control.
The target of test [8] is Serine/threonine-protein kinase pim-2 (Homo sapiens) (UniProt Q9P1W9). As to the kind of experiment: Inhibition of recombinant human Pim2 (2 to end residues) assessed as residual activity at 1 uM using RSRHSSYPAGT as substrate measured after 40 mins in presence of [gamma33P]ATP by scintillation counting method relative to control.
Serine/threonine-protein kinase pim-2 (Homo sapiens), sequence (Q9P1W9 whole entry, looked up): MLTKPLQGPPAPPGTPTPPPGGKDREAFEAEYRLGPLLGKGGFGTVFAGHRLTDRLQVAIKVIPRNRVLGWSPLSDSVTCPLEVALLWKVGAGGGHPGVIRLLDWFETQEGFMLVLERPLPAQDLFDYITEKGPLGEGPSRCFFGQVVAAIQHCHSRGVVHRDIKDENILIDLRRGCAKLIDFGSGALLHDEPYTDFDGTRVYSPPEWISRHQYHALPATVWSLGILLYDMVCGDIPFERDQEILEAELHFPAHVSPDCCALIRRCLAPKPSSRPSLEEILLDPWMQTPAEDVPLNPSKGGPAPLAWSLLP
For test [9], the target named is Serine/threonine-protein kinase Sgk3 (Homo sapiens) (UniProt Q96BR1). Kind of test: Inhibition of recombinant human SGK3 (119 to end residues) assessed as residual activity at 1 uM using GRPRTSSFAEGKK as substrate measured after 40 mins in presence of [gamma33P]ATP by scintillation counting method relative to control.
Serine/threonine-protein kinase Sgk3 (Homo sapiens), sequence (Q96BR1 whole entry): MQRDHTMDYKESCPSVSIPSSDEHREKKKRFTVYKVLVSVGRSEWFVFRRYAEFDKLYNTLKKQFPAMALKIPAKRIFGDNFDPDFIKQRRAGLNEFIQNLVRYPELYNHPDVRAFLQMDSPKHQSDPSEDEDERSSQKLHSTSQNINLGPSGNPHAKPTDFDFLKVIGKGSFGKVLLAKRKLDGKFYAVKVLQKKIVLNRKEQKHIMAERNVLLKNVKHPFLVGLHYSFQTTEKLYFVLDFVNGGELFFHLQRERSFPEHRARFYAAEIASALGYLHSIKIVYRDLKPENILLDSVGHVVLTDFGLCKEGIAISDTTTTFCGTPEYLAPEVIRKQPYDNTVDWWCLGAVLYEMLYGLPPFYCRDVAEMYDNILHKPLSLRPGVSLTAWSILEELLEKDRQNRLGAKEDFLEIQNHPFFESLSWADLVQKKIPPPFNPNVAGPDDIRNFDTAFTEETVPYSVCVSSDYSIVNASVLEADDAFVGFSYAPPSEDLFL
The species entered for test [10] is Homo sapiens. As to the kind of experiment: Inhibition of recombinant full-length human ATRIP/ATR M211T mutant at 1 uM assessed as residual activity at 1 uM using GST-cMyc-p53 as substrate measured after 40 mins by fluorescence assay.
Test [11] concerns the target Epidermal growth factor receptor (Homo sapiens) (UniProt P00533). Kind of test: Inhibition of recombinant human EGFR (696 to end residues) assessed as residual activity at 1 uM using poly(Glu, Tyr) 4:1 as substrate at 40 mins in presence of [gamma-33ATP] by scintillation counting based radiometry assay relative to control.
The species named for test [12] is Homo sapiens. As to the kind of experiment: Inhibition of recombinant human Plk4 S34T mutant (1 to 273 residues) assessed as residual activity at 1 uM using casein as substrate measured after 40 mins in presence of [gamma33P]ATP by scintillation counting method relative to control.
The target in test [13] is ALK tyrosine kinase receptor (Homo sapiens) (UniProt Q9UM73). As to the kind of experiment: Inhibition of human ALK (1058 to end residues) assessed as residual activity at 1 uM using KKKSPGEYVNIEFG as substrate incubated for 40 mins in presence of [gamma-33ATP] by scintillation counting based radiometry assay relative to control.
Test [14] concerns the target Tyrosine-protein kinase ZAP-70 (Homo sapiens) (UniProt P43403). Kind of test: Inhibition of recombinant full-length human ZAP70 at 1 uM assessed as residual activity at 1 uM using poly(Glu, Tyr) 4:1 as substrate measured after 40 mins in presence of [gamma33P]ATP by scintillation counting method relative to control.
For test [15], the system named is Serine/threonine-protein kinase Chk2 (Homo sapiens), O96017 [I157T]. Kind of test: Inhibition of recombinant human CHK2 I157T mutant (5 to end residues) assessed as residual activity at 1 uM using KKKVSRSGLYRSPSMPENLNRPR as substrate incubated for 40 mins in presence of [gamma-33ATP] by scintillation counting based radiometry assay relative to control.
Test [16] concerns Macrophage colony-stimulating factor 1 receptor (Homo sapiens), P07333 [Y969C]. Kind of test: Inhibition of recombinant human FMS Y969C mutant (538 to end residues) assessed as residual activity at 1 uM using EEEEYEEEEEEYYIIEEEEEEYEEEEEEYYEEEEEEKKKK as substrate at 40 mins in presence of [gamma-33ATP] by scintillation counting based radiometry assay relative to control.
In test [17] the target is Epithelial discoidin domain-containing receptor 1 (Homo sapiens) (UniProt Q08345). Kind of test: Inhibition of recombinant human DDR1 (492 to end residues) assessed as residual activity at 1 uM using KKKSPGEYVNIEFG as substrate at 40 mins in presence of [gamma-33ATP] by scintillation counting based radiometry assay relative to control.
Epithelial discoidin domain-containing receptor 1 (Homo sapiens), sequence (Q08345 whole entry, the tested form may be a part): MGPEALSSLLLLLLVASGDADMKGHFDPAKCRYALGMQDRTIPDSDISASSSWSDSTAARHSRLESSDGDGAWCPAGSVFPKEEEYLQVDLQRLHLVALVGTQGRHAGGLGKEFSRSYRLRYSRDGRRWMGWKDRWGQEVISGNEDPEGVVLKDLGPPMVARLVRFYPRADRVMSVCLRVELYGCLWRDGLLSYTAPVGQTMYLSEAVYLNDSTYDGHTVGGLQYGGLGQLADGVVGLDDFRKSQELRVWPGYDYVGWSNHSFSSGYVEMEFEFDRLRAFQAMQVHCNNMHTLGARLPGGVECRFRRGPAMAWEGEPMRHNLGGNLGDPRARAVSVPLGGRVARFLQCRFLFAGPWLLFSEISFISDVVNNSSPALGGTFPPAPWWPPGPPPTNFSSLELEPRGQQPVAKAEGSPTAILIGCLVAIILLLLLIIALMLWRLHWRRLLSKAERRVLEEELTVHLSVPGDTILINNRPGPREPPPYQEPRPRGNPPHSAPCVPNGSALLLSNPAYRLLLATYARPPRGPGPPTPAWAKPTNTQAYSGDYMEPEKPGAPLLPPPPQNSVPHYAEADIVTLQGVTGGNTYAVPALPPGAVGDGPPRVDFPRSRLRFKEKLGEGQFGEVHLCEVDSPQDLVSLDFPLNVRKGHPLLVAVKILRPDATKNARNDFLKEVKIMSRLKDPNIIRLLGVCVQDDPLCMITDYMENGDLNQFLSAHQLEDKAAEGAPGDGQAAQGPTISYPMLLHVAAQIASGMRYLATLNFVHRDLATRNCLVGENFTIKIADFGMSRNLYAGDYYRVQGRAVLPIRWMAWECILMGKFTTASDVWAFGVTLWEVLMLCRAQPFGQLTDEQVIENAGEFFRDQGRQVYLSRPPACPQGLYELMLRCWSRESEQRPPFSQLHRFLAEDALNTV
The target of test [18] is Tyrosine-protein kinase ABL2 (Homo sapiens) (UniProt P42684). Kind of test: Inhibition of human Arg (38 to end residues) assessed as residual activity at 1 uM using EAIYAAPFAKKK as substrate incubated for 40 mins in presence of [gamma-33ATP] by scintillation counting based radiometry assay relative to control.
For test [19], the target named is Dual specificity mitogen-activated protein kinase kinase 2 (Homo sapiens) (UniProt P36507). Kind of test: Inhibition of recombinant human MEK2 assessed as residual activity at 1 uM using MBP as substrate incubated for 40 mins in presence of [gamma-33ATP by scintillation counting based radiometry assay relative to control.
In test [20] the target is Activin receptor type-1 (Homo sapiens) (UniProt Q04771). As to the kind of experiment: Inhibition of human ALK2 (147 to end residues) assessed as residual activity at 1 uM using casein as substrate incubated for 40 mins in presence of [gamma-33ATP] by scintillation counting based radiometry assay relative to control.
For test [21], the target named is Serine/threonine-protein kinase 24 (Homo sapiens) (UniProt Q9Y6E0). As to the kind of experiment: Inhibition of recombinant human MST3 (1 to 304 residues) assessed as residual activity at 1 uM using ERMRPRKRQGSVRRRV as substrate measured after 40 mins in presence of [gamma33P]ATP by scintillation counting method relative to control.

Epidermal growth factor receptor (Homo sapiens), sequence (P00533 whole entry, the tested form may be a part): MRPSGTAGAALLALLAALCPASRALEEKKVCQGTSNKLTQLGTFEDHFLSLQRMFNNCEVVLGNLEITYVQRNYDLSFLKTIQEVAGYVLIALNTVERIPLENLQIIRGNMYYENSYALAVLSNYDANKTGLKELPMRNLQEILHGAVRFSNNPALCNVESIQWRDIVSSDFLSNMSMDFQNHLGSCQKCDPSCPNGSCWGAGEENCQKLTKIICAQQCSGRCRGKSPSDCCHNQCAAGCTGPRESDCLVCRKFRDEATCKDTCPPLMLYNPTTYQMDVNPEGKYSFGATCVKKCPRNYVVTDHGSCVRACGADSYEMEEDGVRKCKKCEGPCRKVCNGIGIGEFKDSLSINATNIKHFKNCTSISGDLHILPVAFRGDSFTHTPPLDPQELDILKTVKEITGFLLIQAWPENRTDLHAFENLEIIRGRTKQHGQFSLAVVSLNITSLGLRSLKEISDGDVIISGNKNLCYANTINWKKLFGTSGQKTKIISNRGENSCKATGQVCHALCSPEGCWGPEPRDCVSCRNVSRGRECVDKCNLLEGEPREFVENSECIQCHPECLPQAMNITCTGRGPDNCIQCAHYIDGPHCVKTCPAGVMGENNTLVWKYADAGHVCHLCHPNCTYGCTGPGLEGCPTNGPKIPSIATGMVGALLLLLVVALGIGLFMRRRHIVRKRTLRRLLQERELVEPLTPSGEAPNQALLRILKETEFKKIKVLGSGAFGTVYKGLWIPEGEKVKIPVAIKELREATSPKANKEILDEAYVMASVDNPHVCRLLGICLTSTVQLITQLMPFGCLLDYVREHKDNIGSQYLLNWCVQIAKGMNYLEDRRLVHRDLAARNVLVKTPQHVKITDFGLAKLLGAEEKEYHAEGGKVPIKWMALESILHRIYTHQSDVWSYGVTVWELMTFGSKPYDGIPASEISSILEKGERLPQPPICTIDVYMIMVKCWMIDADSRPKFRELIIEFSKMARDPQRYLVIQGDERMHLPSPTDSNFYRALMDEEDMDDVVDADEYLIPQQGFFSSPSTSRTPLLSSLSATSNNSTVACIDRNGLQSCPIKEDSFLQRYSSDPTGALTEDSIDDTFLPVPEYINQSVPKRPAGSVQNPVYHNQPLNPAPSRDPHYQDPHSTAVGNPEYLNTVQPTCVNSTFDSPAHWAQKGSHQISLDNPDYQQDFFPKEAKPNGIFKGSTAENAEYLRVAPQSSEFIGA
Fibroblast growth factor receptor 2 (Homo sapiens), sequence (P21802 22-821 limits assumed): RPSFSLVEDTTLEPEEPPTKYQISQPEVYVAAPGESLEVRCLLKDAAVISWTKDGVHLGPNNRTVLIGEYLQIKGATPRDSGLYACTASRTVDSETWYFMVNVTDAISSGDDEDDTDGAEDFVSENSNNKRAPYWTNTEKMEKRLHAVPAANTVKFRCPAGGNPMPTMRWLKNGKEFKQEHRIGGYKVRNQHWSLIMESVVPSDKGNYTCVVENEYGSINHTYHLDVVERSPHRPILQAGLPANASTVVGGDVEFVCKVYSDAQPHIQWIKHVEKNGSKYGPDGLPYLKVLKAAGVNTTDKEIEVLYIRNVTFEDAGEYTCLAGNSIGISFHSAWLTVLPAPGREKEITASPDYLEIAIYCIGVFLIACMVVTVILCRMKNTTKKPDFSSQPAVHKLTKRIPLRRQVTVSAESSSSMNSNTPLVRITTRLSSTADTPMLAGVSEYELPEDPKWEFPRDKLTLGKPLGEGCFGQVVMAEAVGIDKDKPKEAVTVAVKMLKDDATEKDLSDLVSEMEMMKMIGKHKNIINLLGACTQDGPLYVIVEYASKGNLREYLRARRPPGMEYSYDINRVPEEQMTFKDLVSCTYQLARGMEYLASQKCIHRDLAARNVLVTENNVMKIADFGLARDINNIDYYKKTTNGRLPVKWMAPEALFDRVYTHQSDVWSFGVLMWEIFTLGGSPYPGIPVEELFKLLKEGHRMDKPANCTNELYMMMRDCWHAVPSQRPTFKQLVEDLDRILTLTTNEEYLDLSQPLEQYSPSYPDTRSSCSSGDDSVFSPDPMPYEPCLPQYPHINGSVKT

Take `C=CCOC(=O)c1cc(-c2ccc(/C=C3/NC(=S)NC3=O)o2)ccc1Cl`: the Activity came to 79% in test [1]; 101% in [2]; 108% in test [3]; 98% in [4]; 64% in [5]; 90% in test [6]. The Activity was determined as 49% in test [7]; 10% in test [8]; 96% in [9]; 102% in [10]; 106% in test [11]; 91% in test [12]. The Activity came to 90% in test [13]; 107% in [14]; 91% in [15]; 95% in test [16]; 106% in test [17]; 107% in test [18]. Further, the Activity was determined as 104% in test [19], 105% in [20] and 106% in test [21].

In the case of `N=C1NC(=O)/C(=C\c2ccc(-c3cccc([N+](=O)[O-])c3)o2)S1`, the Activity is 99% in test [1]; 98% in test [2]; 103% in [3]; 102% in [4]; 59% in test [5]; 95% in test [6]. In addition, the Activity in test [7] came to 40%; in [8], 6%; in test [9], 109%; in [10], 111%; in test [11] it was 91%; in [12], 83%. Moreover, the Activity came to 98% in test [13]; 106% in [14]; 85% in [15]; 106% in test [16]; 99% in test [17]; 87% in test [18]. In addition, the Activity in test [19] was found to be 100%; in test [20], 101%; in test [21] it was 105%.

The values above are taken from ChEMBL document CHEMBL4334438, “Discovery of novel glycogen synthase kinase-3α inhibitors: Structure-based virtual screening, preliminary SAR and biological evaluation for treatment of acute myeloid leukemia” (Eur J Med Chem, 2019).
